Reference: ChEMBL document CHEMBL3259747, “Small chemicals with inhibitory effects on PtdIns(3,4,5)P3 binding of Btk PH domain” (Bioorg Med Chem Lett, 2014)

Target: T1, Epsin-1 (Homo sapiens, UniProt Q9Y6I3)
T1 sequence (Q9Y6I3 whole entry): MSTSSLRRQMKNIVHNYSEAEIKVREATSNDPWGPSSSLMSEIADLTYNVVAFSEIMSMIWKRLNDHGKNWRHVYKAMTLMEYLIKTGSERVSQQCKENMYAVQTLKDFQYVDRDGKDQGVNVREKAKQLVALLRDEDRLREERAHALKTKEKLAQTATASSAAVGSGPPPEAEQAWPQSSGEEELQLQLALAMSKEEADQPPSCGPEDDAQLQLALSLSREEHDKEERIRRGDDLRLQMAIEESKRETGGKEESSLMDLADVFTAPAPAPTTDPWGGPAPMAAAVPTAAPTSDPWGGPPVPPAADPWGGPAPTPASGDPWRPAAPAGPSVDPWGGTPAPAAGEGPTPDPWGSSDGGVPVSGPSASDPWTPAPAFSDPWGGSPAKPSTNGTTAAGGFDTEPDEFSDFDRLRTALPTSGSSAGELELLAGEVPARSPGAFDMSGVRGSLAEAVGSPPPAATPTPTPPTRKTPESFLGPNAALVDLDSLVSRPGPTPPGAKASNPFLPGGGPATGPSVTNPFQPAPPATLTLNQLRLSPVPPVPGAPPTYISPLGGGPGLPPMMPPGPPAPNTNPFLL
Test: Inhibition of PtdIns(4,5)P2 binding to Epsin1 ENTH domain (unknown origin)

Row | SMILES | IC50 [µM]
1 | O=C(O)c1cc(P(=O)(O)O)n[nH]1 | 46

Target: T2, Tyrosine-protein kinase BTK (Homo sapiens, UniProt Q06187)
Test: Inhibition of PtdIns(3,4,5)P3 binding to Btk PH domain (unknown origin) expressed in Escherichia coli BL21(DE3) RIL cells at 100 uM by surface plasmon resonance assay relative to untreated control

T2 sequence (Q06187 whole entry, the tested form may be a part): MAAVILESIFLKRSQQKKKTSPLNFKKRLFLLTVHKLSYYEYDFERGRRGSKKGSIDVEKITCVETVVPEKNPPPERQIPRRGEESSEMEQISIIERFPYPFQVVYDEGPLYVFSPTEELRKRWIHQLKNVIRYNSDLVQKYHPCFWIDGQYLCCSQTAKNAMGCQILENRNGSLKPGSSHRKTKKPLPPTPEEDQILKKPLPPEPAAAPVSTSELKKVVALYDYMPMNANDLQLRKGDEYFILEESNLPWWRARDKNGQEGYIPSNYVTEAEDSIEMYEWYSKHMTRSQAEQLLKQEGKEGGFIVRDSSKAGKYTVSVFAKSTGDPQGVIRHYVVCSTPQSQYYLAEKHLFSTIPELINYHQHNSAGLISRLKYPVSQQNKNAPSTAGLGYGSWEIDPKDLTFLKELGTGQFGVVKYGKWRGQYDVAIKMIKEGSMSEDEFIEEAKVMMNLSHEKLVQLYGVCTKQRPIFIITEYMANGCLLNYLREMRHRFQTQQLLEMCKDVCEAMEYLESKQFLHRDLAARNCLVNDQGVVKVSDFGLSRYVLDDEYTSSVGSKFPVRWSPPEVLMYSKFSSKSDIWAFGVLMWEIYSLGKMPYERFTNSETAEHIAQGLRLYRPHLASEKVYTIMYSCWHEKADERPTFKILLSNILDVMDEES

Row | SMILES | inhibition [%]
2 | O=C(O)c1cc(P(=O)(O)O)n[nH]1 | 95
3 | CC1(C(=O)O)CC([PH](=O)O)=NN1 (stereo not drawn) | 71
4 | CCOP(=O)(O)c1n[nH]c(C(=O)O)c1C(=O)O | 34
5 | O=C1[C@@H]2C[C@@H]3O[C@]2(C(O)C3OP(=O)(O)O)[C@@H](P(=O)(O)O)N1Cc1ccccc1 (stereo partly drawn) | 11
6 | O=C1[C@@H]2C[C@@H]3O[C@]2(C(O)C3O)[C@@H](P(=O)(O)O)N1Cc1ccccc1 (stereo partly drawn) | 13
7 | O=C1[C@@H]2C[C@H]3CC[C@@]2(O3)[C@@H](P(=O)(O)O)N1Cc1ccccc1 | 38
8 | COP(=O)(O)c1cc(C(=O)O)[nH]n1 | 48

The remaining lines, values ahead:

Row | inhibition [%] | SMILES
9 | 37 | CCOP(=O)(O)c1cc(C(=O)O)[nH]n1
10 | 52 | COP(=O)(O)C1=NNC(C)(C(=O)O)C1 (stereo not drawn)
11 | 41 | CCOP(=O)(O)C1=NNC(C)(C(=O)O)C1 (stereo not drawn)
12 | 64 | CC1(C(=O)O)NN=C(P(=O)(O)O)C1C(=O)O (stereo not drawn)

Target: T2, Tyrosine-protein kinase BTK
Test: Inhibition of PtdIns(3,4,5)P3 binding to Btk PH domain (unknown origin) expressed in Escherichia coli BL21(DE3) RIL cells by surface plasmon resonance assay relative to untreated control

Row | SMILES | IC50 [µM]
13 | O=C(O)c1cc(P(=O)(O)O)n[nH]1 | 17
